Literature values as cited in US20090023643A1, “Methods For Treating Acute Myocardial Infarction By Administering Calcitonin Gene Related Peptide And Compositions Containing The Same” (VasoGenix Pharmaceuticals, Inc., priority 2004, published 2009).

Experiments:
[1] = test system: IL-12; conditions: Torii et al 1997
[2] = test system: B7-2; conditions: Ashana et al 1995; Torii et al 1997
[3] = test system: IL-10; conditions: Torii et al 1997
[4] = test system: TNF-α; conditions: lipopolysaccharide induced, macrophages; Feng et al 1997
[5] = test system: IGF-1 (insulin-like growth factor-1); conditions: R. Zfoncea et al 1997
[6] = test system: IL-1β; conditions: Torii et al 1997
[7] = test system: IL-16; conditions: Dunzendorfer et al 2002-2003
[8] = test system: IL-7; conditions: Fernandez et al 2000

CGRP
CGRP activity: cytokines inhibited or suppressed, IL-12; benefits [1]: Suppresses Natural Killer Cell Stimulating factor (NKSF)
CGRP activity: cytokines inhibited or suppressed, B7-2; benefits [2]: Inhibits Granulocyte-Macrophage Colony
CGRP activity: induced anti-inflammatory cytokines, IL-10; benefits [3]: Inhibits monocyte inflammation
CGRP activity: cytokines inhibited or suppressed, TNF-α; benefits [4]: Inhibits lipopolysaccharide induced TNF-α in macrophages
expression of IGF-1 [5]: increases expression of IGF-1
CGRP activity: cytokines inhibited or suppressed, IL-1β; benefits [6]: Inhibits proliferation of T-cells
CGRP activity: cytokines inhibited or suppressed, IL-16; benefits [7]: Inhibits macrophage chemotaxis
CGRP activity: cytokines inhibited or suppressed, IL-7; benefits [8]: Inhibits pre B-cell development and T-cell development
